Experimental data reported in the CheMixHub ionic liquid set.
Where “and” joins values, the source holds several entries; their conditions need not be identical. Equal entries are not always repeated.

Assay: xn = mol fraction of the nth substance listed

CC(=O)[O-].CC[NH2+]CC + O
Conditions	electrical conductivity [S/m]	viscosity [mPa·s]
283.15 K, 100.9 kPa, x1 = 0.168	–	27.4
283.15 K, 100.9 kPa, x1 = 0.24	–	55.1
283.15 K, 100.9 kPa, x1 = 0.351	–	92.3
288.15 K, 100.9 kPa, x1 = 0.549	–	105
295.65 K, 100.9 kPa, x1 = 0.168	–	14.67
298.15 K, 101 kPa, x1 = 0.0174	2.06	–
298.15 K, 101 kPa, x1 = 0.0967	2.21	–
298.15 K, 101 kPa, x1 = 0.199	–	14.82
298.15 K, 101 kPa, x1 = 0.1997	1.52	–
298.15 K, 101 kPa, x1 = 0.6989	0.361	–
298.15 K, 101 kPa, x1 = 0.877	–	57.2
300.65 K, 100.9 kPa, x1 = 0.168	–	11.78
303.15 K, 100.9 kPa, x1 = 0.168	2.24	10.62
303.15 K, 100.9 kPa, x1 = 0.351	–	30.6
305.65 K, 100.9 kPa, x1 = 0.24	–	17.47
310.65 K, 100.9 kPa, x1 = 0.24	–	14.12
310.65 K, 100.9 kPa, x1 = 0.549	–	32.6
313.15 K, 100.9 kPa, x1 = 0.549	–	29.2
315.65 K, 100.9 kPa, x1 = 0.119	–	4.25
315.65 K, 100.9 kPa, x1 = 0.168	–	6.65
315.65 K, 100.9 kPa, x1 = 0.714	–	30.1
318.15 K, 100.9 kPa, x1 = 0.007	2.25	–
318.15 K, 100.9 kPa, x1 = 0.353	1.34	–
328.15 K, 100.9 kPa, x1 = 0.015	–	0.728
328.15 K, 100.9 kPa, x1 = 0.549	–	16.18
330.65 K, 100.9 kPa, x1 = 0.015	–	0.692
330.65 K, 100.9 kPa, x1 = 0.055	–	1.339
330.65 K, 100.9 kPa, x1 = 0.119	–	2.78
330.65 K, 100.9 kPa, x1 = 0.168	–	4.17
333.15 K, 100.9 kPa, x1 = 0.007	2.64	–
333.15 K, 100.9 kPa, x1 = 0.119	–	2.61
333.15 K, 100.9 kPa, x1 = 0.351	–	9.26
333.15 K, 100.9 kPa, x1 = 0.55	1.07	–
333.15 K, 100.9 kPa, x1 = 0.84	–	15.7
335.65 K, 100.9 kPa, x1 = 0.168	–	3.63
340.65 K, 100.9 kPa, x1 = 0.168	–	3.19
343.15 K, 100.9 kPa, x1 = 0.055	–	1.052
348.15 K, 100.9 kPa, x1 = 0.353	2.81	–
348.15 K, 100.9 kPa, x1 = 0.55	1.68	–
348.15 K, 100.9 kPa, x1 = 0.714	1.3	–
348.15 K, 100.9 kPa, x1 = 0.838	1.11	–
363.15 K, 100.9 kPa, x1 = 0.168	9.08	–
363.15 K, 100.9 kPa, x1 = 0.945	1.27	–

CC(C)C[P+](C)(CC(C)C)CC(C)C.Cc1ccc(S(=O)(=O)[O-])cc1 + O
Conditions	viscosity [mPa·s]
293.15 K, 101 kPa, x2 = 0.7599	68
293.15 K, 101 kPa, x2 = 0.8779	23
293.15 K, 101 kPa, x2 = 0.9283	11.6
293.15 K, 101 kPa, x2 = 0.9729	4
298.15 K, 100 kPa, x1 = 0.003319	1.115
298.15 K, 100 kPa, x1 = 0.00854	1.475
308.15 K, 100 kPa, x1 = 0.009239	1.175
333.15 K, 100 kPa, x1 = 0.9022	221
353.15 K, 100 kPa, x1 = 0.9022	79

CCC(=O)[O-].C[n+]1ccn(CCO)c1 + O
100 kPa
Conditions	viscosity [mPa·s]
298.15 K, x1 = 0.7595	94.2
298.15 K, x1 = 0.8421	117
308.15 K, x1 = 0.8991	75.9
318.15 K, x1 = 0.8421	40.3
323.15 K, x1 = 0.8083	31.9
323.15 K, x1 = 0.8991	34.8
328.15 K, x1 = 0.8083	27
328.15 K, x1 = 0.9102	30.5
333.15 K, x1 = 0.8991	23.6

CCCCCCCCCCCCCC[n+]1ccccc1.O=C([O-])C(O)c1ccccc1 + O
electrical conductivity [S/m], 101 kPa
Conditions	293.15 K	298.15 K	303.15 K	308.15 K	313.15 K
x1 = 6.85e-06	0.00248	0.00278	0.00309	0.0034	0.0037
x1 = 1.424e-05	0.00472	0.00529	0.00587	0.0065	0.0071
x1 = 2.126e-05	0.00671	0.0076	0.0084	0.0093	0.0101
x1 = 2.811e-05	0.0086	0.0097	0.0108	0.0122	0.0131
x1 = 3.46e-05	0.0103	0.0116	0.0129	0.0145	0.0157
x1 = 4.108e-05	0.0117	0.0131	0.0146	0.0161	0.0179
x1 = 4.811e-05	0.0129	0.0144	0.0161	0.0179	0.0198
x1 = 5.388e-05	0.0137	0.0154	0.0172	0.0191	0.0211
x1 = 5.982e-05	0.0145	0.0163	0.0182	0.0202	0.0224
x1 = 6.559e-05	0.0153	0.0172	0.0192	0.0213	0.0236
x1 = 7.081e-05	0.016	0.018	0.02	0.0223	0.0246
x1 = 7.604e-05	0.0167	0.0187	0.0209	0.0232	0.0258
x1 = 8.072e-05	0.0173	0.0194	0.0217	0.0241	0.0266

CCCCCCCCCCCCOS(=O)(=O)[O-].CCCC[n+]1ccn(C)c1 + O
Conditions	viscosity [mPa·s]
333 K, 101 kPa, x1 = 0.06262	970000

CCCCCCCCCCOS(=O)(=O)[O-].CC[n+]1ccn(C)c1 + O
101 kPa, frequency 0.0005 MHz, x1 = 0.075
Conditions	electrical conductivity [S/m]
308.15 K	2.87
363.15 K	6.86

CCCCCCCC[N+](CC)(CC)CC.O=S(=O)([N-]S(=O)(=O)C(F)(F)F)C(F)(F)F + O
101 kPa, x2 = 0.1435
Conditions	viscosity
318.05 K	36.51 mPa·s and 55.8 mPa·s
323.05 K	29.74 mPa·s

CCCC[N+](CCCC)(CCCC)Cc1ccccc1.[Cl-] + O
electrical conductivity [S/m], frequency 0.001 MHz
Conditions	293.15 K	298.15 K	303.15 K	308.15 K	313.15 K	318.15 K
100 kPa, x1 = 1.802e-05	0.0056	0.0105	0.0171	0.0235	0.0329	–
100 kPa, x1 = 5.406e-05	0.0129	0.0203	0.0243	0.0288	0.0396	–
100 kPa, x1 = 9.009e-05	0.0172	0.0255	0.0327	0.0349	0.0468	–
101.3 kPa, x1 = 1.802e-05	–	0.0104	–	0.0139	–	0.0173
101.3 kPa, x1 = 5.406e-05	–	0.0231	–	0.0284	–	0.0345
101.3 kPa, x1 = 9.009e-05	–	0.0367	–	0.0457	–	0.0546

viscosity [mPa·s]
Conditions	293.15 K	298.15 K	303.15 K	308.15 K	318.15 K
100 kPa, x1 = 1.802e-05	0.953	0.913	0.876	–	–
100 kPa, x1 = 5.406e-05	0.961	0.921	0.88	–	–
100 kPa, x1 = 9.009e-05	0.972	0.93	–	–	–
101.3 kPa, x1 = 1.802e-05	–	0.906	–	0.775	0.643
101.3 kPa, x1 = 5.406e-05	–	0.923	–	0.793	0.659
101.3 kPa, x1 = 9.009e-05	–	0.942	–	–	–
